Reference: PubChem BioAssay (NCI)
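Assay format: 96-well plates, 48-hour exposure. TGI: concentration producing complete growth inhibition.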

Columns and labels:
Experiment in all cases: DTP human tumour cell line panel, 48 h
[1] = system: 786-0 renal
[2] = system: SK-MEL-2 melanoma
[3] = system: COLO 205 colon
[4] = system: OVCAR-8 ovarian
[5] = system: SNB-19 CNS
[6] = system: HCT-116 colon
[7] = system: NCI/ADR-RES ovarian
[8] = system: MDA-N
[9] = system: SK-MEL-5 melanoma
[10] = system: UACC-257 melanoma
[11] = system: CCRF-CEM leukemia
[12] = system: A498 renal
[13] = system: MCF7 breast
[14] = system: PC-3 prostate
[15] = system: HCT-15 colon
[16] = system: DU-145 prostate
[17] = system: IGROV1 ovarian
[18] = system: SK-OV-3 ovarian
[19] = system: OVCAR-3 ovarian
[20] = system: T-47D breast
[21] = system: SK-MEL-28 melanoma
[22] = system: TK-10 renal
[23] = system: HOP-62 NSCLC
[24] = system: OVCAR-5 ovarian
[25] = system: SNB-75 CNS
[26] = system: OVCAR-4 ovarian
[27] = system: RXF 393 renal
[28] = system: NCI-H226 lung
[29] = system: U251 CNS
[30] = system: HL-60(TB) leukemia
[31] = system: UACC-62 melanoma
[32] = system: NCI-H460 lung
[33] = system: EKVX NSCLC
[34] = system: MALME-3M melanoma
[35] = system: MDA-MB-231 breast
[36] = system: UO-31 renal
[37] = system: KM12 colon
[38] = system: LOX IMVI melanoma
[39] = system: SF-539 CNS
[40] = system: SR leukemia
[41] = system: CAKI-1 renal
[42] = system: K-562 leukemia
[43] = system: A549 NSCLC
[44] = system: NCI-H522 lung
[45] = system: HCC-2998 colon
[46] = system: SF-268 CNS
[47] = system: RPMI-8226 leukemia
[48] = system: HT29 colon
[49] = system: SF-295 CNS
[50] = system: M14 melanoma
[51] = system: MDA-MB-435
[52] = system: MOLT-4 leukemia
[53] = system: NCI-H23 lung
[54] = system: SN12C renal
[55] = system: HOP-92 NSCLC
[56] = system: SW-620 colon
[57] = system: HS 578T breast
[58] = system: ACHN renal
[59] = system: BT-549 breast

In the case of N=C1N(c2ccccc2)C(=S)C(=Nc2ccccc2)N1c1ccccc1, the TGI [1] was 22.2 µM, the TGI [2] was 12.4 µM and the TGI [3] was 12.1 µM. For the same compound, the TGI [4] was 16.7 µM, the TGI [5] was 30.4 µM and the TGI [6] was 7.26 µM. It also gave a TGI [7] of 38.6 µM, a TGI [8] of 6.1 µM and a TGI [9] of 6.21 µM. It also gave a TGI [10] of 7.52 µM, a TGI [11] of over 20.7 µM and a TGI [12] of 31.8 µM. For the same compound, the TGI [13] was 3.46 µM, the TGI [14] was 24.8 µM and the TGI [15] was 21.9 µM. It also gave a TGI [16] of 31.2 µM, a TGI [17] of 25.9 µM and a TGI [18] of 33 µM. The TGI [19] was 9.55 µM, the TGI [20] was 9.21 µM and the TGI [21] was 31.7 µM. The TGI [22] was 28.2 µM, the TGI [23] was 34.1 µM and the TGI [24] was 32.1 µM. The TGI [25] was 29.4 µM, the TGI [26] was 26.8 µM and the TGI [27] was 25 µM. It also gave a TGI [28] of 36.3 µM, a TGI [29] of 27.3 µM and a TGI [30] of 10.9 µM. For the same compound, the TGI [31] was 13.5 µM, the TGI [32] was 31 µM and the TGI [33] was 53.1 µM. The TGI [34] was 26.6 µM, the TGI [35] was 20.9 µM and the TGI [36] was 16.7 µM. It also gave a TGI [37] of 27.2 µM, a TGI [38] of 5.14 µM and a TGI [39] of 24.9 µM. The TGI [40] was over 48.4 µM, the TGI [41] was 27.7 µM and the TGI [42] was 9.59 µM. For the same compound, the TGI [43] was 42.1 µM, the TGI [44] was 7.72 µM and the TGI [45] was 30.7 µM. The TGI [46] was 29.7 µM, the TGI [47] was 13.9 µM and the TGI [48] was 18.3 µM. It also gave a TGI [49] of 30.5 µM, a TGI [50] of 23.6 µM and a TGI [51] of 3.94 µM. It also gave a TGI [52] of 7.55 µM, a TGI [53] of 18 µM and a TGI [54] of 27.8 µM. It also gave a TGI [55] of 22.9 µM, a TGI [56] of 13 µM and a TGI [57] of 47.4 µM. It also gave a TGI [58] of 20.6 µM.
For COc1c(-c2nc3nc(N4CCN(C)CC4)ccc3[nH]2)cc(OC)c2c1nc(CO)n2C, the TGI [1] was over 100 µM, the TGI [2] was over 100 µM and the TGI [3] was over 100 µM. It also gave a TGI [4] of over 100 µM, a TGI [5] of over 100 µM and a TGI [6] of over 100 µM. The TGI [7] was over 100 µM, the TGI [8] was over 100 µM and the TGI [10] was over 100 µM. For the same compound, the TGI [11] was over 100 µM, the TGI [14] was over 100 µM and the TGI [15] was over 100 µM. It also gave a TGI [16] of over 100 µM, a TGI [17] of over 100 µM and a TGI [18] of over 100 µM. It also gave a TGI [19] of over 100 µM, a TGI [20] of over 100 µM and a TGI [21] of over 100 µM. It also gave a TGI [23] of over 100 µM, a TGI [24] of over 100 µM and a TGI [25] of over 100 µM. The TGI [26] was over 100 µM, the TGI [27] was over 100 µM and the TGI [28] was over 100 µM. The TGI [29] was over 100 µM, the TGI [30] was over 100 µM and the TGI [31] was over 100 µM. The TGI [32] was over 100 µM, the TGI [33] was over 100 µM and the TGI [34] was over 100 µM. The TGI [35] was over 100 µM, the TGI [36] was over 100 µM and the TGI [37] was over 100 µM. The TGI [38] was over 100 µM, the TGI [39] was over 100 µM and the TGI [41] was over 100 µM. The TGI [42] was over 100 µM, the TGI [43] was over 100 µM and the TGI [44] was over 100 µM. It also gave a TGI [45] of over 100 µM, a TGI [46] of over 100 µM and a TGI [47] of over 100 µM. The TGI [48] was over 100 µM, the TGI [49] was over 100 µM and the TGI [50] was over 100 µM. It also gave a TGI [51] of over 100 µM, a TGI [52] of over 100 µM and a TGI [59] of over 100 µM. It also gave a TGI [53] of over 100 µM, a TGI [54] of over 100 µM and a TGI [55] of over 100 µM. For the same compound, the TGI [56] was over 100 µM, the TGI [57] was over 100 µM and the TGI [58] was over 100 µM.
Cc1nc2c(=O)n(C)c(=O)n(C)c2o1 gave a TGI [1] of over 100 µM, a TGI [2] of over 100 µM and a TGI [3] of over 100 µM. It also gave a TGI [4] of over 100 µM, a TGI [5] of over 100 µM and a TGI [6] of over 100 µM. For the same compound, the TGI [7] was over 100 µM, the TGI [8] was over 100 µM and the TGI [9] was over 100 µM. The TGI [10] was over 100 µM, the TGI [11] was over 100 µM and the TGI [12] was over 100 µM. It also gave a TGI [14] of over 100 µM, a TGI [15] of over 100 µM and a TGI [17] of over 100 µM. The TGI [18] was over 100 µM, the TGI [19] was over 100 µM and the TGI [20] was over 100 µM. For the same compound, the TGI [22] was over 100 µM, the TGI [23] was over 100 µM and the TGI [24] was over 100 µM. The TGI [25] was over 100 µM, the TGI [26] was over 100 µM and the TGI [27] was over 100 µM. For the same compound, the TGI [28] was over 100 µM, the TGI [29] was over 100 µM and the TGI [31] was over 100 µM. For the same compound, the TGI [32] was over 100 µM, the TGI [33] was over 100 µM and the TGI [34] was over 100 µM. For the same compound, the TGI [35] was over 100 µM, the TGI [36] was over 100 µM and the TGI [37] was over 100 µM. The TGI [38] was over 100 µM, the TGI [39] was over 100 µM and the TGI [40] was over 100 µM. It also gave a TGI [41] of over 100 µM, a TGI [42] of over 100 µM and a TGI [43] of over 100 µM. It also gave a TGI [44] of over 100 µM, a TGI [45] of over 100 µM and a TGI [46] of over 100 µM. It also gave a TGI [47] of over 100 µM, a TGI [48] of over 100 µM and a TGI [49] of over 100 µM. It also gave a TGI [50] of over 100 µM, a TGI [51] of over 100 µM and a TGI [52] of over 100 µM. It also gave a TGI [59] of over 100 µM, a TGI [53] of over 100 µM and a TGI [54] of over 100 µM. The TGI [55] was over 100 µM, the TGI [56] was over 100 µM and the TGI [57] was over 100 µM. For the same compound, the TGI [58] was over 100 µM.
